Laboratory results taken from the NIST ThermoML archive (doi:10.1016/j.jct.2006.11.003).

Experiment: xn = mol fraction of the nth substance listed
Settings: 101 kPa, Liquid

Cc1cccc(C)c1 [1,3-dimethylbenzene] + CN1CCCC1=O
Settings | mass density [kg/m3]
293.15 K, x1 = 0.0451 | 1024.18
293.15 K, x1 = 0.1145 | 1011.33
293.15 K, x1 = 0.1874 | 998.07
293.15 K, x1 = 0.2451 | 987.76
293.15 K, x1 = 0.3258 | 973.58
293.15 K, x1 = 0.3987 | 961
293.15 K, x1 = 0.4657 | 949.63
293.15 K, x1 = 0.5214 | 940.31
293.15 K, x1 = 0.5985 | 927.59
293.15 K, x1 = 0.6584 | 917.85
293.15 K, x1 = 0.7214 | 907.73
293.15 K, x1 = 0.7987 | 895.48
293.15 K, x1 = 0.8547 | 886.71
293.15 K, x1 = 0.9048 | 878.92
293.15 K, x1 = 0.9597 | 870.47
293.15 K, x1 = 1 | 864.31
303.15 K, x1 = 0.0541 | 1013.3
303.15 K, x1 = 0.1134 | 1002.37
303.15 K, x1 = 0.1954 | 987.52
303.15 K, x1 = 0.2562 | 976.72
303.15 K, x1 = 0.3214 | 965.31
303.15 K, x1 = 0.3895 | 953.58
303.15 K, x1 = 0.4487 | 943.53
303.15 K, x1 = 0.5014 | 934.7
303.15 K, x1 = 0.5782 | 922.02
303.15 K, x1 = 0.6484 | 910.6
303.15 K, x1 = 0.7154 | 899.86
303.15 K, x1 = 0.7654 | 891.93
303.15 K, x1 = 0.8241 | 882.72
303.15 K, x1 = 0.8815 | 873.79
303.15 K, x1 = 0.9465 | 863.8
303.15 K, x1 = 1 | 855.64
313.15 K, x1 = 0.0487 | 1005.18
313.15 K, x1 = 0.1151 | 992.96
313.15 K, x1 = 0.1745 | 982.21
313.15 K, x1 = 0.2495 | 968.86
313.15 K, x1 = 0.3147 | 957.46
313.15 K, x1 = 0.3851 | 945.34
313.15 K, x1 = 0.4587 | 932.89
313.15 K, x1 = 0.5185 | 922.93
313.15 K, x1 = 0.6214 | 906.08
313.15 K, x1 = 0.6785 | 896.89
313.15 K, x1 = 0.7484 | 885.77
313.15 K, x1 = 0.7945 | 878.53
313.15 K, x1 = 0.8521 | 869.55
313.15 K, x1 = 0.9021 | 861.83
313.15 K, x1 = 0.9548 | 853.77
313.15 K, x1 = 1 | 846.9
323.15 K, x1 = 0.0548 | 995.37
323.15 K, x1 = 0.1154 | 984.22
323.15 K, x1 = 0.1754 | 973.34
323.15 K, x1 = 0.2354 | 962.63
323.15 K, x1 = 0.2965 | 951.89
323.15 K, x1 = 0.3551 | 941.73
323.15 K, x1 = 0.4158 | 931.36
323.15 K, x1 = 0.4814 | 920.31
323.15 K, x1 = 0.5385 | 910.84
323.15 K, x1 = 0.5821 | 903.68
323.15 K, x1 = 0.6514 | 892.44
323.15 K, x1 = 0.7085 | 883.3
323.15 K, x1 = 0.7765 | 872.54
323.15 K, x1 = 0.8512 | 860.88
323.15 K, x1 = 0.9374 | 847.61
323.15 K, x1 = 1 | 838.09
333.15 K, x1 = 0.0451 | 987.86
333.15 K, x1 = 0.1102 | 975.88
333.15 K, x1 = 0.1985 | 959.95
333.15 K, x1 = 0.2511 | 950.64
333.15 K, x1 = 0.3201 | 938.59
333.15 K, x1 = 0.3952 | 925.71
333.15 K, x1 = 0.4625 | 914.36
333.15 K, x1 = 0.5214 | 904.57
333.15 K, x1 = 0.5985 | 891.95
333.15 K, x1 = 0.6584 | 882.28
333.15 K, x1 = 0.7121 | 873.71
333.15 K, x1 = 0.7741 | 863.94
333.15 K, x1 = 0.8351 | 854.42
333.15 K, x1 = 0.8812 | 847.31
333.15 K, x1 = 0.9487 | 836.99
333.15 K, x1 = 1 | 829.22
343.15 K, x1 = 0.0547 | 977.18
343.15 K, x1 = 0.1241 | 964.43
343.15 K, x1 = 0.1887 | 952.77
343.15 K, x1 = 0.2654 | 939.18
343.15 K, x1 = 0.3214 | 929.42
343.15 K, x1 = 0.3985 | 916.19
343.15 K, x1 = 0.4658 | 904.84
343.15 K, x1 = 0.5214 | 895.6
343.15 K, x1 = 0.5985 | 882.97
343.15 K, x1 = 0.6541 | 874
343.15 K, x1 = 0.7014 | 866.44
343.15 K, x1 = 0.7654 | 856.33
343.15 K, x1 = 0.8354 | 845.41
343.15 K, x1 = 0.8924 | 836.63
343.15 K, x1 = 0.9469 | 828.32
343.15 K, x1 = 1 | 820.29
353.15 K, x1 = 0.0544 | 968.44
353.15 K, x1 = 0.1214 | 956.1
353.15 K, x1 = 0.1958 | 942.64
353.15 K, x1 = 0.2562 | 931.9
353.15 K, x1 = 0.3214 | 920.5
353.15 K, x1 = 0.3985 | 907.25
353.15 K, x1 = 0.4515 | 898.28
353.15 K, x1 = 0.5114 | 888.28
353.15 K, x1 = 0.5941 | 874.69
353.15 K, x1 = 0.6621 | 863.71
353.15 K, x1 = 0.7214 | 854.26
353.15 K, x1 = 0.7852 | 844.22
353.15 K, x1 = 0.8471 | 834.59
353.15 K, x1 = 0.8915 | 827.76
353.15 K, x1 = 0.9565 | 817.85
353.15 K, x1 = 1 | 811.29

Cc1ccc(C)cc1 [1,4-dimethylbenzene] + CN1CCCC1=O
Settings | mass density [kg/m3]
293.15 K, x1 = 0.0511 | 1023.02
293.15 K, x1 = 0.1204 | 1010.11
293.15 K, x1 = 0.1985 | 995.8
293.15 K, x1 = 0.2451 | 987.37
293.15 K, x1 = 0.2987 | 977.77
293.15 K, x1 = 0.3458 | 969.44
293.15 K, x1 = 0.4012 | 959.72
293.15 K, x1 = 0.4781 | 946.42
293.15 K, x1 = 0.5314 | 937.3
293.15 K, x1 = 0.5984 | 925.99
293.15 K, x1 = 0.6558 | 916.4
293.15 K, x1 = 0.7154 | 906.57
293.15 K, x1 = 0.7841 | 895.34
293.15 K, x1 = 0.8512 | 884.52
293.15 K, x1 = 0.9254 | 872.69
293.15 K, x1 = 1 | 860.95
303.15 K, x1 = 0.0645 | 1011.3
303.15 K, x1 = 0.1151 | 1001.91
303.15 K, x1 = 0.1814 | 989.76
303.15 K, x1 = 0.2654 | 974.62
303.15 K, x1 = 0.3214 | 964.66
303.15 K, x1 = 0.3854 | 953.43
303.15 K, x1 = 0.4515 | 941.97
303.15 K, x1 = 0.5024 | 933.26
303.15 K, x1 = 0.5685 | 922.06
303.15 K, x1 = 0.6214 | 913.21
303.15 K, x1 = 0.6754 | 904.26
303.15 K, x1 = 0.7451 | 892.85
303.15 K, x1 = 0.8114 | 882.12
303.15 K, x1 = 0.8841 | 870.51
303.15 K, x1 = 0.9514 | 859.89
303.15 K, x1 = 1 | 852.3
313.15 K, x1 = 0.0521 | 1004.87
313.15 K, x1 = 0.1142 | 993.77
313.15 K, x1 = 0.1721 | 983.53
313.15 K, x1 = 0.2302 | 973.36
313.15 K, x1 = 0.3065 | 960.16
313.15 K, x1 = 0.3615 | 950.77
313.15 K, x1 = 0.4115 | 942.31
313.15 K, x1 = 0.4841 | 930.18
313.15 K, x1 = 0.5547 | 918.53
313.15 K, x1 = 0.6208 | 907.77
313.15 K, x1 = 0.7055 | 894.15
313.15 K, x1 = 0.7805 | 882.26
313.15 K, x1 = 0.8372 | 873.36
313.15 K, x1 = 0.8947 | 864.42
313.15 K, x1 = 0.9539 | 855.29
323.15 K, x1 = 0.0575 | 994.81
323.15 K, x1 = 0.1247 | 982.32
323.15 K, x1 = 0.2011 | 968.35
323.15 K, x1 = 0.2784 | 954.42
323.15 K, x1 = 0.338 | 943.85
323.15 K, x1 = 0.4015 | 932.73
323.15 K, x1 = 0.4697 | 920.97
323.15 K, x1 = 0.5389 | 909.19
323.15 K, x1 = 0.6003 | 898.9
323.15 K, x1 = 0.6674 | 887.8
323.15 K, x1 = 0.7245 | 878.46
323.15 K, x1 = 0.7806 | 869.38
323.15 K, x1 = 0.8341 | 860.82
323.15 K, x1 = 0.8947 | 851.21
323.15 K, x1 = 0.9481 | 842.83
323.15 K, x1 = 1 | 834.76
333.15 K, x1 = 0.0462 | 987.58
333.15 K, x1 = 0.1025 | 977.11
333.15 K, x1 = 0.1724 | 964.26
333.15 K, x1 = 0.2354 | 952.85
333.15 K, x1 = 0.2951 | 942.18
333.15 K, x1 = 0.3658 | 929.72
333.15 K, x1 = 0.4315 | 918.31
333.15 K, x1 = 0.5007 | 906.49
333.15 K, x1 = 0.5714 | 894.57
333.15 K, x1 = 0.6378 | 883.55
333.15 K, x1 = 0.7047 | 872.6
333.15 K, x1 = 0.7533 | 864.73
333.15 K, x1 = 0.8258 | 853.13
333.15 K, x1 = 0.8846 | 843.83
333.15 K, x1 = 0.9479 | 833.93
333.15 K, x1 = 1 | 825.86
343.15 K, x1 = 0.0675 | 974.69
343.15 K, x1 = 0.1353 | 962.13
343.15 K, x1 = 0.2024 | 949.85
343.15 K, x1 = 0.2715 | 937.41
343.15 K, x1 = 0.3376 | 925.68
343.15 K, x1 = 0.4061 | 913.71
343.15 K, x1 = 0.4719 | 902.38
343.15 K, x1 = 0.5422 | 890.46
343.15 K, x1 = 0.6103 | 879.09
343.15 K, x1 = 0.6749 | 868.44
343.15 K, x1 = 0.7405 | 857.78
343.15 K, x1 = 0.8049 | 847.44
343.15 K, x1 = 0.8674 | 837.54
343.15 K, x1 = 0.9308 | 827.6
343.15 K, x1 = 0.9788 | 820.15
343.15 K, x1 = 1 | 816.87
353.15 K, x1 = 0.0567 | 967.91
353.15 K, x1 = 0.1134 | 957.31
353.15 K, x1 = 0.1826 | 944.57
353.15 K, x1 = 0.2527 | 931.85
353.15 K, x1 = 0.3072 | 922.09
353.15 K, x1 = 0.3857 | 908.27
353.15 K, x1 = 0.4584 | 895.67
353.15 K, x1 = 0.5036 | 887.95
353.15 K, x1 = 0.5757 | 875.79
353.15 K, x1 = 0.6382 | 865.4
353.15 K, x1 = 0.7016 | 855.01
353.15 K, x1 = 0.7613 | 845.35
353.15 K, x1 = 0.8139 | 836.93
353.15 K, x1 = 0.8846 | 825.75
353.15 K, x1 = 0.9378 | 817.44
353.15 K, x1 = 1 | 807.81
